Literature values as cited in patent US7652014B2, “Substituted 6-cyclohexylalkyl substituted 2-quinolinones and 2-quinoxalinones as poly(ADP-ribose) polymerase inhibitors” (Janssen Pharmaceutica, priority 2003, dated 2010).

Columns and labels:
[1] = test system: infarct size caused by ischemia and reperfusion of the heart; details: rabbits, cited from earlier work
colitis = details: rats, trinitrobenzene sulfonic acid induced colitis, distal colon; cited from earlier work

SMILES | reduction in infarct size ([1]; single injection 1 mg/kg) | reduction in infarct size in the heart ([1]; single injection 10 mg/kg, one minute before occlusion or one minute before reperfusion) | effect on inflammatory response in colitis (colitis)
Oc1cccc2c(O)nccc12 [1,5-dihydroxyisoquinoline] | 38-48% |  | 
NC(=O)c1cccc(N)c1 [3-amino-benzamide] |  | 32-42% | reduced the inflammatory response
